Data: patent EP2687213B1, “Solid forms comprising (+)-2-[1-(3-ethoxy-4-methoxyphenyl)-2-methylsulfonylethyl]-4-acetylaminoisoindoline-1,3-dione, compositions thereof, and uses thereof” (CELGENE CORPORATION, priority 2008, dated 2009)

How the values were obtained:
Format in all cases: biochemical
Conditions in all cases: from PDE inhibition data of Table 1
bovine PDE1 = assay: PDE1 enzyme assay
[1] = target: PDE7 purified from Hut78 human T cells (Homo sapiens, UniProt Q13946); assay: PDE7 enzyme assay
Protocol: PDE7 is a cAMP-selective PDE expressed mainly in T cells and in skeletal muscle. T cell-derived cytokines such as IL-2 and IFN-γ are potentially regulatable via PDE7 inhibition. […] Compounds were tested against the PDE7 preparation in the presence of 10 nM cAMP as described for PDE4 in Table 1.

[2] = target: PDE3 from human platelets (Homo sapiens, UniProt Q14432); assay: PDE3 enzyme assay
human PDE2 = human PDE2 (Homo sapiens, UniProt O00408); assay: PDE2 enzyme assay
[3] = target: PDE5 from human platelets (Homo sapiens, UniProt O76074); assay: PDE5 enzyme assay

Chain of PDE3 from human platelets (Q14432 whole entry): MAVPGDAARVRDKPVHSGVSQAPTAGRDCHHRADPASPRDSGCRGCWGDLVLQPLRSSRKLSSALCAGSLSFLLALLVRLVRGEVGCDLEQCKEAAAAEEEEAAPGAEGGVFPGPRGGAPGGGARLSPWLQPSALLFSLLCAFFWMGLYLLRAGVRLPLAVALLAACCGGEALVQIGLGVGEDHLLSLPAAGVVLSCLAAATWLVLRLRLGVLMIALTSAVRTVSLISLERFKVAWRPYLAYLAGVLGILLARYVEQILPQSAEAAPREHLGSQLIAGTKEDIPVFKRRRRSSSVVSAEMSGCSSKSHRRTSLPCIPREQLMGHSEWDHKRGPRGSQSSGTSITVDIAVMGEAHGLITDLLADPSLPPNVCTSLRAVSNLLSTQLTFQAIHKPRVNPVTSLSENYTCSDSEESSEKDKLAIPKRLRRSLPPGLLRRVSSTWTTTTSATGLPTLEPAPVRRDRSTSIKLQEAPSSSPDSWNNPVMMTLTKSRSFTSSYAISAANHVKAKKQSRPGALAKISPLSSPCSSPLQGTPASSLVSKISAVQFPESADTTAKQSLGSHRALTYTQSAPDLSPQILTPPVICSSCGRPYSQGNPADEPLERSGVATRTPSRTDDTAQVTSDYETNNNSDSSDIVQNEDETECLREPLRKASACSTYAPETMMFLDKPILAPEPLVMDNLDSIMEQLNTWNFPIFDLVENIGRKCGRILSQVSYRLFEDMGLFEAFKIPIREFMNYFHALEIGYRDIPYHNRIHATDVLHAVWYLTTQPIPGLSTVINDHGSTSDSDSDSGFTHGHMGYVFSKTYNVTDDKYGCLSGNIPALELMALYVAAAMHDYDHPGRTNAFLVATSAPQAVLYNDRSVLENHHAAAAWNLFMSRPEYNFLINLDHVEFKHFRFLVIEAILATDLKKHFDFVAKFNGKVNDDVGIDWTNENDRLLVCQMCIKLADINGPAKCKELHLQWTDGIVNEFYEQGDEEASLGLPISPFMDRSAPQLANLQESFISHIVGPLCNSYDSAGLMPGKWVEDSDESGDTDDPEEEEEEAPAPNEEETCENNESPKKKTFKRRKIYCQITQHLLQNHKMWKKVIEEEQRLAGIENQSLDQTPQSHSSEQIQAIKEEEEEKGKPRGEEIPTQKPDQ
Chain of human PDE2 (O00408 whole entry): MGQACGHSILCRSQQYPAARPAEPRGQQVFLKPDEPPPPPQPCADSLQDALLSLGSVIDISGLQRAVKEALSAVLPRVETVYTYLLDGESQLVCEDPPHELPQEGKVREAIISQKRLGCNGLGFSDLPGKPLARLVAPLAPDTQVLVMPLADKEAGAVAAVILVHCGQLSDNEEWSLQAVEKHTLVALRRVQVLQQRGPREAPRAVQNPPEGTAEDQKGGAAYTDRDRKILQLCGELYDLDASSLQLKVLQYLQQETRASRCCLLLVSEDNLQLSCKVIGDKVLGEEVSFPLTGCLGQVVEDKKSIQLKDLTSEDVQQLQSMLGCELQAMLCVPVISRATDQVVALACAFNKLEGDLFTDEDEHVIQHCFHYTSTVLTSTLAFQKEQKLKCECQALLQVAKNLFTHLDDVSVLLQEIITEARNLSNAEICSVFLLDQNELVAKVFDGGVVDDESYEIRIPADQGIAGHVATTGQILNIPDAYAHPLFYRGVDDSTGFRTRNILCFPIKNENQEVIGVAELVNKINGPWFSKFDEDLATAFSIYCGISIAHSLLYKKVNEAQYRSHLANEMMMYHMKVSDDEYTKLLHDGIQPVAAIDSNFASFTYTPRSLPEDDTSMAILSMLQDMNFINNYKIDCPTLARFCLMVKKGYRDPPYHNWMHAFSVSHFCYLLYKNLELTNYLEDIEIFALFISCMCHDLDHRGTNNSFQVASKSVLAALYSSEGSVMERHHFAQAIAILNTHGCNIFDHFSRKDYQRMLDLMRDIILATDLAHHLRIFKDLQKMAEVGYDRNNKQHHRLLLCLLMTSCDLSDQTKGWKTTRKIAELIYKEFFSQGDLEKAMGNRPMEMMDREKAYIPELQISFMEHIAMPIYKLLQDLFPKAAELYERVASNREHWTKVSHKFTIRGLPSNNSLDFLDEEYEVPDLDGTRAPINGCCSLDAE
Chain of PDE7 purified from Hut78 human T cells (Q13946 whole entry): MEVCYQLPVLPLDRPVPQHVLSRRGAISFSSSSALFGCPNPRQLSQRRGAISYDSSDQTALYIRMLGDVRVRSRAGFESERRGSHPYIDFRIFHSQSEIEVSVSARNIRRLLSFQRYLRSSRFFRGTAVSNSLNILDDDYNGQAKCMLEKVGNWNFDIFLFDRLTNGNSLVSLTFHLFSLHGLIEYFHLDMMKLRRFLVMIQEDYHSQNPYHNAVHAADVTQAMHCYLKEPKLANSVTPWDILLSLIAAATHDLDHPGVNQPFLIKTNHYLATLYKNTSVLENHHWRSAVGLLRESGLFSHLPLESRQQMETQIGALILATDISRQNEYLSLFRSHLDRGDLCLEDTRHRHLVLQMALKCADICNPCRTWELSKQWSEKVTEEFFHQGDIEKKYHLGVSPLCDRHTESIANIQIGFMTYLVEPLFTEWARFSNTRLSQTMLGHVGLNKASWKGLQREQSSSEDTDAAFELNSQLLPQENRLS

CCOc1cc(C(CS(C)(=O)=O)N2C(=O)c3cccc(NC(C)=O)c3C2=O)ccc1OC (racemic) [Racemic Compound, 2-[1-(3-Ethoxy-4-methoxyphenyl)-2-methylsulfonylethyl]-4-acetylaminoisoindoline-1,3-dione]
PDE Specificity Ratio PDE4/PDE1 (bovine PDE1): >2700 fold | PDE Specificity Ratio PDE7 IC50/PDE4 IC50 [1]: 270 fold | PDE Specificity Ratio PDE4/PDE3 [2]: >670 fold | PDE Specificity Ratio PDE4/PDE2 (human PDE2): >800 fold | PDE Specificity Ratio PDE4/PDE5 [3]: >12000 fold
